According to article PMC7400207, “It Takes Two: Dimerization Is Essential for the Broad-Spectrum Predatory and Defensive Activities of the Venom Peptide Mp1a from the Jack Jumper Ant Myrmecia pilosula” (Biomedicines, 2020):

Assays:
F11 cells = assay: FLIPR calcium assay, activation of F11 cells; type: cell-based; conditions: F11 cells, FLIPR, Calcium 4 dye, max-min fluorescence in 300 s after peptide addition, PSS with 0.1% BSA; mean ± SEM, triplicate
Experimental: F11 cells were cultured as previously described. Cells were maintained on Ham’s F12 media supplemented with 10% fetal bovine serum (FBS), 100 µM hypoxanthine, 0.4 µM aminopterin, and 16 µM thymidine (Hybri-MaxTM, Sigma Aldrich, North Ryde, Australia). Then, 384-well imaging plates (Corning) were seeded 48 h prior to imaging resulting in 90–95% confluence at imaging. Cells were incubated for 30 min with the Calcium 4 assay component A according to the manufacturer’s instructions (Molecular Devices, Sunnyvale, CA, USA) in physiological salt solution (PSS; composition in mM: 140 NaCl, 11.5 D-glucose, 5.9 KCl, 1.4 MgCl2, 1.2 NaH2PO4, 5 NaHCO3, 1.8 CaCl2, 10 HEPES) at 37°C. Fluorescence was measured using a fluorescent imaging plate reader (FLIPR^TETRA) equipped with a CCD camera (Excitation: 470–490 nm, Emission: […]) (Molecular Devices, Sunnyvale, CA, USA). Signals were read every second for 10 s before, and 300 s after the addition of peptides in PSS supplemented with 0.1% bovine serum albumin. All data are the mean ± SEM of assays performed in triplicate. Maximum–minimum fluorescence in the 300 s period after peptide addition was recorded as the response. Concentration–response data were fitted with a four-parameter Hill equation (variable slope) using GraphPad Prism 8 to obtain effective concentration (EC50) values.

Haemonchus contortus = assay: microbe, parasite or virus in culture; type: cell-based; conditions: H. contortus Kirby isolate, egg to infective L3, 6 days, 26 °C; three experiments of duplicate assays, ± SEM; for 1a the component at higher concentrations (about 90% of population); read-out: Anthelmintic Activity (IC50), inhibition of larval development
Experimental: Sheep were infected with H. contortus Kirby isolate (field isolate from the University of New England Kirby Research Farm in 1986; susceptible to all commercial anthelmintics) and housed at the Commonwealth Scientific and Industrial Research Organisation (CSIRO) FD McMaster Laboratory, Armidale, NSW. All animal procedures were approved by the FD McMaster Animal Ethics Committee, CSIRO (Approval Number AEC 17/12, approval date 15.6.2017). Eggs were prepared from overnight fecal collection as described. In brief, feces were filtered through mesh filters, settled, and supernatant removed by vacuum. Eggs were recovered by density centrifugation using 10 and 25% (w/v) sucrose solutions, centrifuged at 650× g for 7 min. Eggs were recovered from the interface of the two sucrose layers, rinsed with distilled water, sterilized with bleach, rinsed again, and diluted to 4500 eggs/mL. Tylosin tartrate (800 μg/mL) and amphotericin B (25.0 μg/mL) were added, and eggs were used immediately for larval development assays.
Assays were conducted using 96-well microtitre plates, with each well containing 50 μL of 2% agar, 20 μL of egg solution and 20 μL of peptide solution in water. The commercial anthelmintic levamisole (Sigma Aldrich) was used as a positive control (final 1% v/v). Negative controls contained equivalent volumes of water or DMSO (final 1% v/v). Plates were incubated at 26 °C for six days. After 24 h, each well was fed with 10 μL of a nutrient solution containing Escherichia coli XL1-Blue1 (grown overnight at 37 °C) and growth medium. The growth medium consisted of yeast extract (1% w/v), Earle’s salt solution (10% v/v), saline solution (0.9% NaCl, w/v), and sodium bicarbonate (1 mM) in Luria-Bertani medium (LB). Larvae were killed and stained with Lugol’s iodine solution after six days. Larvae that had developed to the infective L3 stage were counted, and the numbers in treated assay wells were expressed as a percentage of the number of infective L3 stage larvae in multiple control wells. Concentrations that caused 50% inhibition (IC50 values) were calculated from three experiments of duplicate assays.

Drosophila melanogaster = Drosophila melanogaster microinjection assay; type: in vivo; conditions: intrathoracic injection, 50 nL, adult female flies, lethality at 24 h; three dose-response curves, ± SEM
Experimental: The insecticidal activity of the chemically synthesized 1a and analogues thereof were determined by injection into adult female D. melanogaster aged 3–5 days (mass 0.7–0.9 mg) as described previously. Analogues were dissolved in water and intrathoracically injected using pulled glass capillaries at a volume of 50 nL per fruit fly, and the results were compared against an equivalent injection volume of water alone. All injections were performed in the morning or early afternoon. At 24 h post-injection flies were monitored for lethality. Dose–response curves were constructed using 7–10 doses per analogue (each dose tested in eight flies) and three separate dose–response curves were constructed for each analogue. The lethality in the groups receiving the analogues were adjusted using the respective control group lethality using the Henderson-Tilton formula [20]. The median lethal dose (LD50) of each analogue was calculated based on the three dose–response curves using GraphPad Prism 8.0 [21]. One-way ANOVA followed by Dunnett’s multiple comparison test were used to compare LD50 values.

HEK293 cells = conditions: HEK293, 24 h, resazurin; cited from earlier work
Experimental: (§1) Table 2 Summary of bioassay data for synthetic Mp1a and analogues, including effective concentration (EC50) for activation of F11 cells, concentrations that caused 50% inhibition (IC50) for inhibition of larval development of H. contortus; median lethal dose (LD50) for lethal insecticidal effects on D. melanogaster; concentrations required to induce 50% cell death (CC50) for effects on viability o | column: Cytotoxicity (CC50 µM) ^b

human red blood cells = conditions: cited from earlier work
Experimental: as §1, with “Hemolysis (HC50” for “Cytotoxicity (CC50”

CC[C@H](C)[C@H](N)C(=O)N[C@@H](CC(=O)O)C(=O)N[C@@H](Cc1c[nH]c2ccccc12)C(=O)N[C@@H](CCCCN)C(=O)N[C@@H](CCCCN)C(=O)N[C@H](C(=O)N[C@@H](CC(=O)O)C(=O)N[C@@H](Cc1c[nH]c2ccccc12)C(=O)N[C@@H](CCCCN)C(=O)N[C@@H](CCCCN)C(=O)N[C@H](C(=O)N[C@@H](CO)C(=O)N[C@@H](CCCCN)C(=O)N[C@@H](CCCCN)C(=O)N[C@H](C(=O)N[C@H]1CSSC[C@@H](C(=O)N[C@@H](CCCCN)C(=O)N[C@@H](Cc2ccccc2)C(=O)N[C@@H](CC(C)C)C(N)=O)NC(=O)[C@H](C)NC(=O)[C@H](CCCCN)NC(=O)[C@H](CC(C)C)NC(=O)[C@H](CCSC)NC(=O)[C@H](C(C)C)NC(=O)[C@H](CCCCN)NC1=O)[C@@H](C)O)C(C)C)C(C)C [Analogue 3a]
Neuronal Cell Activation (EC50) (F11 cells): inactive
IC50 (Haemonchus contortus): 46.8 ± 0.6 µM
Insecticidal Activity (LD50) (Drosophila melanogaster): > 600 pmol/g
Cytotoxicity (CC50) (HEK293 cells): > 20 µM
Hemolysis (HC50) (human red blood cells): > 20 µM

CC[C@H](C)[C@H](NC(=O)[C@@H](N)CC(C)C)C(=O)NCC(=O)N[C@@H](CC(C)C)C(=O)N[C@H](C(=O)N[C@@H](CO)C(=O)N[C@@H](CCCCN)C(=O)NCC(=O)N[C@H](C(=O)N[C@H]1CSSC[C@@H](C(=O)N[C@@H](CCCCN)C(=O)N[C@@H](CCCCN)C(=O)N[C@H](C(=O)N[C@@H](CC(C)C)C(=O)N[C@@H](CCCCN)C(=O)N[C@@H](CCC(N)=O)C(N)=O)C(C)C)NC(=O)[C@H](C(C)C)NC(=O)[C@H]([C@@H](C)O)NC(=O)[C@H](CCCCN)NC(=O)[C@H](C(C)C)NC(=O)[C@H](CC(C)C)NC(=O)[C@H](C(C)C)NC1=O)[C@@H](C)O)C(C)C [Analogue 4a]
Neuronal Cell Activation (EC50) (F11 cells): inactive
IC50 (Haemonchus contortus): 65.5 ± 5.5 µM
Insecticidal Activity (LD50) (Drosophila melanogaster): > 600 pmol/g
Cytotoxicity (CC50) (HEK293 cells): > 15 µM
Hemolysis (HC50) (human red blood cells): > 15 µM
